Values of other authors as cited in US6800435B2, “Insect sodium channels from insecticide-susceptible and insecticide-resistant house flies” (Cornell Research Foundation, Inc., priority 1996, dated 2004).

System: resistant (538ge) house fly strain
Settings: kdr trait, adult flies, Sawicki 1978

Clc1ccc(C(c2ccc(Cl)cc2)C(Cl)(Cl)Cl)cc1 [DDT, 1,1-bis-(4-chlorophenyl)-2,2,2-trichloroethane]
doses required to kill approximately 50% of the treated individuals: approximately 0.5 μg per adult fly
